This note sets out measurements from patent US9751842B2, “Phthalazine derivatives” (Merck Patent GmbH, priority 2013, dated 2017).

Bounds are passed on as bounds.

In assay [1] the target is T1, GST-tagged Tankyrase-2 (873-1166 aa) (Homo sapiens, UniProt Q9H2K2).
T1 construct: GST-tagged Tankyrase-2 (873-1166 aa)
Put plainly: Tankyrase 2 autoparsylation HTRF enzyme assay. It is filed as biochemical. Particulars: HTRF autoparsylation, 90 min at 30° C; read-out: IC50 TNKS2 enzyme assay. The method, then:
Biochemical Activity Testing of Tankyrase 1 and 2: Autoparsylation Assay
The autoparsylation assay is run in two steps: the enzymatic reaction in which GST-tagged Tankyrase-1, resp Tankyrase-2 transferred biotinylated ADP-ribose to itself from biotinylated NAD as co-substrate and the detection reaction where a time resolved FRET between cryptate labelled anti-GST bound to the GST tag of the enzyme and Xlent® labelled-streptavidin bound the biotin-parsylation residue is analysed. The autoparsylation activity was detectable directly via the increase in HTRF signal.
The autoparsylation assay is performed as 384-well HTRF® (Cisbio, Codolet, France) assay format in Greiner low volume nb 384-well microtiter plates and is used for high throughput screen. 250 nM GST-tagged Tankyrase-1 (1023-1327 aa), respectively about 250 nM GST-tagged Tankyrase-2 (873-1166 aa) and 5 μM bio-NAD (Biolog, Life science Inst., Bremen, Germany) as co-substrate are incubated in a total volume of 5 μl (50 mM HEPES, 4 mM Mg-chloride, 0.05% Pluronic F-68, 1.4 mM DTT, 0.5% DMSO, pH 7.7) in the absence or presence of the test compound (10 dilution concentrations) for 90 min at 30° C. The reaction is stopped by the addition of 1 μl 50 mM EDTA solution. 2 μl of the detection solution (1.6 μM SA-Xlent® (Cisbio, Codolet, France), 7.4 nM Anti-GST-K® (Eu-labelled anti-GST, Cisbio, Codolet, France) in 50 mM HEPES, 800 mM KF, 0.1° A. BSA, 20 mM EDTA, 0.1% CHAPS, pH 7.0) are added. After 1 h incubation at room temperature the HTRF is measured with an Envision multimode reader (Perkin Elmer LAS Germany GmbH) at excitation wavelength 340 nm (laser mode) and emission wavelengths 615 nm and 665 nm. The ratio of the emission signals is determined. The full value used is the inhibitor-free reaction. The pharmacological zero value used is XAV-939 (Tocris) in a final concentration of 5 μM. The inhibitory values (IC50) are determined using either the program Symyx Assay Explorer® or Condosseo® from GeneData.
For orientation: TR-FRET usually uses a lanthanide donor and a delayed reading to cut background.

Assay [2] addresses T2, GST-tagged Tnks-1 (1023-1327 aa) (Homo sapiens, UniProt O95271).
T2 construct: GST-tagged Tnks-1 (1023-1327 aa, prepared in-house); made in house
Description: TNKS1 activity ELISA (autoparsylation). The format is biochemical. Particulars: activity ELISA, 1 hour at 30° C; read-out: IC50 TNKS1 ELISA. Here is the method:
Description of the TNKS1 and TNKS2 ELISA Assay
Biochemical Activity Testing of TNKS 1 and 2: Activity ELISA (Autoparsylation Assay)
For analysis of autoparsylation activity of TNKS 1 and 2 an activity ELISA is performed: In the first step GST tagged TNKS is captured on a Glutathione coated plate. Then the activity assay with biotinylated NAD is performed in the absence/presence of the compounds. During the enzymatic reaction GST tagged TNKS transfers biotinylated ADP-ribose to itself from biotinylated NAD as co-substrate. For the detection streptavidin-HRP conjugate is added that binds to the biotinylated TNKS and is thereby captured to the plates. The amount of biotinylated resp. autoparsylated TNKS is detected with a luminescence substrate for HRP. The level of the luminescence signal correlates directly with the amount of autoparsylated TNKS and therefore with activity of TNKS.
The activity ELISA is performed in 384 well Glutathione coated microtiter plates (Express capture Glutathione coated plate, Biocat, Heidelberg, Germany). The plates are pre-equilibrated with PBS. Then the plates are incubated with 50 μl 20 ng/well GST-tagged Tnks-1 (1023-1327 aa, prepared in-house), respectively GST-tagged Tnks-2 (873-1166 aa, prepared in-house) in assay buffer (50 mM HEPES, 4 mM Mg-chloride, 0.05% Pluronic F-68, 2 mM DTT, pH 7.7) overnight at 4° C. The plates are washed 3 times with PBS-Tween-20. The wells are blocked by incubation at room temperature for 20 minutes with 50 μl blocking buffer (PBS, 0.05% Tween-20, 0.5% BSA). Afterwards the plates are washed 3 times with PBS-Tween-20. The enzymatic reaction is performed in 50 μl reaction solution (50 mM HEPES, 4 mM Mg-chloride, 0.05% Pluronic F-68, 1.4 mM DTT, 0.5% DMSO, pH 7.7) with 10 μM bio-NAD (Biolog, Life science Inst., Bremen, Germany) as co-substrate in the absence or presence of the test compound (10 dilution concentrations) for 1 hour at 30° C. The reaction is stopped by 3 times washing with PBS-Tween-20. For the detection 50 μl of 20 ng/μl Streptavidin, HRP conjugate (MoBiTec, Göttingen, Germany) in PBS/0.05% Tween-20/0.01% BSA are added and the plates are incubated for 30 minutes at room temperature. After three times washing with PBS-Tween-20 50 μl of SuperSignal ELISA Femto Maximum sensitivity substrate solution (ThermoFisherScientific (Pierce), Bonn, Germany) are added. Following a 1 minute incubation at room temperature luminescence signals are measured with an Envision multimode reader (Perkin Elmer LAS Germany GmbH) at 700 nm. The full value used is the inhibitor-free reaction. The pharmacological zero value used is XAV-939 (Tocris) in a final concentration of 5 μM. The inhibitory values (IC50) are determined using either the program Symyx Assay Explorer® or Condosseo® from GeneData.
In general terms: An ELISA detects its analyte on a solid surface through an enzyme-linked reagent.

T2 sequence (O95271 1023-1327): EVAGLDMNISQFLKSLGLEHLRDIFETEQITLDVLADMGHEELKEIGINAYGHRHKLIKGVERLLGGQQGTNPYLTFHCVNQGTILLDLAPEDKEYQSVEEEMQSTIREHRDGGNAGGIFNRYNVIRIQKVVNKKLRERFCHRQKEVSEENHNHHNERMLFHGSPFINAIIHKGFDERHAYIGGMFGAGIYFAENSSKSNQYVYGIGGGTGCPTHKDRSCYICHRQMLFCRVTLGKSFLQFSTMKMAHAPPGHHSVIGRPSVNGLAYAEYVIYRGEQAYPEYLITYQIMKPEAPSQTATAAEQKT
T1 sequence (Q9H2K2 873-1166): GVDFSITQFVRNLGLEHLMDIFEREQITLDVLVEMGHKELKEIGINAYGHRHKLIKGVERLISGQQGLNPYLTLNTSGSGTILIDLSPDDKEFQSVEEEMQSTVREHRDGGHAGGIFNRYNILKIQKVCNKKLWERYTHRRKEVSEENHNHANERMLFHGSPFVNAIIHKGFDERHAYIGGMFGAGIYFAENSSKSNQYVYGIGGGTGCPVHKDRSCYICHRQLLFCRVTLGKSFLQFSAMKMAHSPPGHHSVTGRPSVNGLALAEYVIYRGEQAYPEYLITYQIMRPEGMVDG

The term IC50 denotes the concentration that gives 50% inhibition. Consider `O=C(Cc1ccccc1)Nc1nncc2ccccc12` [Compound A1, 2-phenyl-N-phthalazin-1-yl-acetamide], for which the IC50 in assay [1] was 0.3 to 3 µM; in assay [2], less than 0.3 µM.

Consider `COc1cccc(CC(=O)Nc2nncc3ccccc23)c1` [Compound A2, 2-(3-methoxyphenyl)-N-phthalazin-1-yl-acetamide], for which the IC50 in assay [1] and in assay [2] was 0.3 to 3 µM each time.

In the case of `COc1ccc(CC(=O)Nc2nncc3ccccc23)cc1` [Compound A3, 2-(4-methoxyphenyl)-N-phthalazin-1-yl-acetamide], the values for the 50% inhibitory concentration (IC50) in assay [1] and in assay [2] were 0.3 to 3 µM and less than 0.3 µM, respectively.

With `CCOc1ccc(CC(=O)Nc2nncc3ccccc23)cc1` [Compound A4, 2-(4-ethoxyphenyl)-N-phthalazin-1-yl-acetamide], the IC50 in assay [1] was 0.3 to 3 µM; in assay [2], less than 0.3 µM.

For the compound `O=C(CCC1CCCC1)Nc1nncc2ccccc12` [Compound A15, 3-cyclopentyl-N-phthalazin-1-yl-propionamide], the IC50 in assay [1] and in assay [2] was less than 0.3 µM in each case.

As to `O=C(CCc1ccccc1Cl)Nc1nncc2ccccc12` [Compound A16, 3-(2-chloro-phenyl)-N-phthalazin-1-yl-propionamide], the half-maximal inhibitory concentration (IC50) in assay [1] and in assay [2] was less than 0.3 µM in each case.

In the case of `Cc1cccc2cnnc(NC(=O)Cc3ccccc3)c12` [Compound A18, N-(8-methyl-phthalazin-1-yl)-2-phenyl-acetamide], the IC50 is 0.3 to 3 µM in assay [1] and less than 0.3 µM in assay [2].

On to `COc1ccc(CC(=O)Nc2nncc3cccc(C)c23)cc1` [Compound A20, 2-(4-methoxy-phenyl)-N-(8-methyl-phthalazin-1-yl)-acetamide], for which the results for the IC50 in assay [1] and in assay [2] were 0.3 to 3 µM and less than 0.3 µM, respectively.
